Reference: ChEMBL document CHEMBL1201862, “PubChem BioAssay data set” (2004)
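Cultured in 96-well plates, cells were exposed to test compound for 48 hours across five concentrations. The concentration for 50% growth inhibition is given as GI50.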 Active and inactive are the calls of the source. Rule as the data show it: active = GI50 up to about 1.1 µM and inactive = higher.

Key:
Experiment in all cases: NCI tumour cell line growth inhibition, 48 h
[1] = tested on: 786-0
[2] = tested on: LOX IMVI
[3] = tested on: K562
[4] = tested on: SK-MEL-28
[5] = tested on: Malme-3M
[6] = tested on: HOP-92
[7] = tested on: SK-OV-3
[8] = tested on: OVCAR-5
[9] = tested on: SK-MEL-2
[10] = tested on: NCI-H460
[11] = tested on: CCRF-CEM
[12] = tested on: SW-620
[13] = tested on: NCI-H522
[14] = tested on: SF-295
[15] = tested on: HOP-62
[16] = tested on: SR

Measured: GI50

COc1ccc(C(=O)C(C(=O)C(=O)Nc2nccs2)c2ccc(OC)cc2)cc1 (stereo not drawn)
inactive: [1] > 100 µM | [2] > 100 µM | [3] > 100 µM | [4] > 100 µM | [5] > 100 µM | [6] > 100 µM | [7] > 100 µM | [8] > 100 µM | [9] > 100 µM | [10] > 100 µM | [11] > 100 µM | [12] > 100 µM | [13] 92 µM

CC1=C(C(=O)Nc2cc(F)c(F)cc2F)C(c2ccc3c(c2)OCO3)C(C(=O)Nc2cc(F)c(F)cc2F)=C(C)N1
inactive: [1] 18.3 µM | [2] 14.4 µM | [3] 17.9 µM | [4] 33.2 µM | [5] 23.3 µM | [6] 2.72 µM | [7] 19.4 µM | [8] 19.9 µM | [9] 18 µM | [14] 21.9 µM | [10] 25.2 µM | [11] 19.5 µM | [12] 33.5 µM | [15] 16.8 µM | [13] 14.9 µM

O=C(c1ccc(Cl)cc1)c1ccc(OCCCCCCCCCCOc2ccc(C(=O)c3ccc(Cl)cc3)cc2)cc1
inactive: [1] > 100 µM | [2] > 100 µM | [3] > 100 µM | [4] > 100 µM | [5] > 100 µM | [6] > 100 µM | [7] > 100 µM | [8] > 100 µM | [9] > 100 µM | [14] > 100 µM | [10] > 100 µM | [11] > 100 µM | [12] > 100 µM | [15] > 100 µM | [13] > 100 µM

C[C@@H]1CC(=O)C2CCCC1C2=O (stereo partly drawn)
inactive: [1] > 100 µM | [2] > 100 µM | [4] > 100 µM | [5] > 100 µM | [16] > 100 µM | [6] > 100 µM | [7] > 100 µM | [8] > 100 µM | [14] > 100 µM | [10] > 100 µM | [11] > 100 µM | [12] > 100 µM | [15] > 100 µM | [13] > 100 µM

COc1cc2cc(OC)c3cc4c(cc3c2c(OC)c1OC)OCO4
inactive: [1] 27.9 µM | [2] 15.5 µM | [3] 9.46 µM | [4] > 39.6 µM | [5] 52.4 µM | [16] 18.5 µM | [6] > 46 µM | [7] > 64.9 µM | [8] 25.2 µM | [9] 71 µM | [14] 28.1 µM | [10] 17.6 µM | [11] 15 µM | [12] 18.6 µM | [15] 42.6 µM | [13] 18 µM

C1CCOC2(CCC3(CC2)OCCCCO3)OC1
inactive: [1] > 100 µM | [3] > 100 µM | [4] > 100 µM | [5] > 100 µM | [16] > 100 µM | [7] > 100 µM | [9] > 100 µM | [10] > 100 µM | [11] > 100 µM | [12] > 100 µM | [15] > 100 µM | [13] > 100 µM

CCCC(O)[C@@H](O)c1ccc2c(c1O)C(=O)c1c(OC)cccc1C2=O (stereo partly drawn)
inactive: [1] 37.5 µM | [2] 27.4 µM | [3] 34.3 µM | [4] 66.4 µM | [5] 40.7 µM | [16] 26.4 µM | [6] 58.2 µM | [7] 24.1 µM | [8] 54.7 µM | [9] 46.8 µM | [14] 33 µM | [10] 29 µM | [11] 31.3 µM | [12] 63.2 µM | [15] 55.2 µM | [13] 16.1 µM

CCCCCCCCCCCCCCCCCC(=O)NCC(COP(=O)([O-])OCC[N+](C)(C)C)OC (stereo not drawn)
inactive: [1] 1.5 µM | [2] 10.6 µM | [3] > 10 µM | [4] 16.6 µM | [5] 8.59 µM | [16] 2.16 µM | [6] 2.64 µM | [7] 15.2 µM | [8] 4.09 µM | [14] 3.46 µM | [10] 1.27 µM | [11] 2.02 µM | [12] 10.9 µM | [15] 2.87 µM

COc1ccc(C2Cc3cc(OC)c(OC)c(OC)c3C2)cc1 (stereo not drawn)
inactive: [1] 61.4 µM | [2] 56.8 µM | [3] 20.2 µM | [4] 31.2 µM | [5] 22.8 µM | [7] > 100 µM | [8] 90.4 µM | [9] 30.6 µM | [14] 41.1 µM | [10] 46.6 µM | [11] 32.6 µM | [12] 29.4 µM | [15] 97.5 µM
